Test results taken from patent publication US20140093513A1, “METHODS OF LOWERING PROPROTEIN CONVERSATE SUBTILISIN/KEXIN TYPE 9 (PCSK9)” (Catabasis Pharmaceuticals, Inc., priority 2012, published 2014).
One block for each compound: values may come before it.

Legend:
PCSK9 = PCSK9 secretion assay in HepG2 cells (PCSK9 ELISA); assay type: cell-based; details: for IC50: 16 hours incubation, at least 6 concentrations
Summary of the method: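 HepG2 cells in serum-free DMEM with compound added in FBS (ethanol-matched) and incubated 16 hours, in triplicate. Secreted PCSK9 in supernatant measured by ELISA (A450), with AlamarBlue viability check. IC50 obtained from at least 6 concentrations.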

[1] = test system: Zucker fa/fa Rat model of Dyslipidemia; experiment: Plasma triglyceride level in the Zucker fa/fa rat model of dyslipidemia; assay type: in vivo; details: Zucker rats, po qd, I-8 at 10, 30, 100 and 300 mg/kg; niacin/EPA 100/200 mg/kg; day 4 fed blood sample, FIG. 3
Procedure: Male Zucker rats (HsdHlr: Zucker-Lepr̂fa) between 8-10 weeks of age were purchased from Harlan and maintained on Purina Rodent Diet (5001) for the duration of the study. Animals were randomized and assigned to treatment arms based on body weight and plasma triglyceride (TG) levels (n=8). Inclusion criteria for the study include body weight >300 grams and fed TG levels in plasma >800 mg/dL. Dosing will be initiated on day 1 and continue through day 5. Dosing will be daily (qd) by oral gavage (po) for all treatment arms (Compound I-8 was administered orally at 4 different doses, 10, 30, 100 and 300 mg/kg; in addition, a combination of niacin/EPA in a ratio of 100/200 mg/kg was also employed). Body weights will be measured for all rats on days 1 through 5. On day 4, a blood sample (fed) will be collected from each rat, processed for plasma and stored at −80° C. Plasma triglyceride level was determined from commercial kits using standard protocols. […] Because compound I-8 was able to lower fed plasma triglyceride, it is useful to treat dyslipidemia as well as other diseases such as type I hyperlipoproteinemia and type 5 hyperlipoproteinemia.

ApoE3Leiden mice = experiment: Plasma cholesterol and triglycerides in ApoE3Leiden mice on Western type diet, 2 and 4 weeks of treatment; assay type: in vivo; details: female APOE*3Leiden mice, WTD, I-8 0.75% w/w, atorvastatin 0.0015% w/w in diet
Procedure: The study was conducted using female APOE*3Leiden mice (groups of each n=10) and one untreated reference control group on chow (n=5). To induce dyslipidemia, a high cholesterol Western type diet containing 1% cholesterol, 15% cacao butter, 40.5% sucrose and 1% corn oil (WTD) was fed to the mice for a total experimental period of 20 weeks (of which 4 weeks are a run-in period).
The dyslipidemic mice were grouped on the basis of plasma cholesterol at t=0 assayed in 4 h fasting blood. Mice with low cholesterol after the run-in period were excluded so that homogenous experimental groups were obtained. A group of reference mice (n=5) remained on a chow diet during the complete study period (normolipidemic reference mice).
This mix was then added to the master mix (containing the rest of the ingredients) and mixed thoroughly. The diet was frozen to −20° C. On the subsequent day, the diet was broken into small pellets (approx 5 g per piece) and freeze dried, and stored in vacuum sealed bags (approx 500 g) at −20° C. until use. The diets were refreshed daily and unused diet was discarded.
1) Body weight at −4, 0, 2, 4 weeks 2) Food intake (g/day/mouse) at 0, 2, 4 weeks (per cage) 3) Plasma total cholesterol at −4, 0, 2, 4 weeks (individually) 4) Plasma triglycerides at −4, 0, 2, 4 weeks (individually) 5) Lipoprotein profiles at 0 (pool of all animals) and 4 weeks (cholesterol distribution over VLDL, LDL and HDL-sized particles, analysis on group level).
EDTA plasma was collected in weeks −4, 0, 2 and 4 weeks. Plasma cholesterol, plasma triglyceride levels and lipoprotein profileswere assayed immediately in fresh plasma.

ApoE*3 Leiden mice = experiment: Plasma lipids and liver weight of ApoE*3 Leiden mice on Western type diet, 16 weeks of treatment; assay type: in vivo; details: I-8 in WTD at 7.5 g/kg
Procedure: The same experimental design used in example 6 was used. Two treatment groups were used (n=15). The control animals were kept on a Western type diet (WTD) consisting of 1% cholesterol, 15% cacao butter, 40.5% sucrose, and 1% corn oil. For the treatment group, compound I-8 was administered in the above WTD at a ratio of 7.5 g/kg. Animals were maintained on the WTD or treatment group for 16 weeks. At the conclusion of the study, plasma cholesterol and triglyceride levels were recorded, as well as the weight of the liver. There was a significant decrease in plasma cholesterol, triglyceride levels as well as liver weight in the treatment group. After 16 weeks of treatment, the cholesterol level of the treatment group was 420 mg/dL, compared with a level of 750 mg/dL for the control group; the triglyceride level was 110 mg/dL, compared with a level of 160 mg/dL for the control group.

IC50 (PCSK9; HepG2 cells): < 25 µM
SMILES: CC/C=C\C/C=C\C/C=C\C/C=C\C/C=C\CCCC(=O)NC1CCN(C(=O)C(C)(C)Oc2ccc(C(=O)c3ccc(Cl)cc3)cc2)CC1 [VII-25, (5Z,8Z,11Z,14Z,17Z)—N-(1-(2-(4-(4-chlorobenzoyl)phenoxy)-2-methylpropanoyl)piperidin-4-yl)icosa-5,8,11,14,17-pentaenamide]

IC50 (PCSK9; HepG2 cells): 25 to 50 µM
SMILES: CC/C=C\C/C=C\C/C=C\C/C=C\C/C=C\CCCC(=O)Nc1nc(C)ncc1CNC(=O)C(C)(C)Oc1ccc(C(=O)c2ccc(Cl)cc2)cc1 [VII-41, (5Z,8Z,11Z,14Z,17Z)—N-(5-((2-(4-(4-chlorobenzoyl)phenoxy)-2-methylpropanamido)methyl)-2-methylpyrimidin-4-yl)icosa-5,8,11,14,17-pentaenamide]

IC50 (PCSK9; HepG2 cells): < 25 µM
SMILES: CC/C=C\C/C=C\C/C=C\C/C=C\C/C=C\CCCC(=O)N1CCN(C(=O)C(C)(C)Oc2ccc(C(=O)c3ccc(Cl)cc3)cc2)CC1 [VII-42, (5Z,8Z,11Z,14Z,17Z)-1-(4-(2-(4-(4-chlorobenzoyl)phenoxy)-2-methylpropanoyl)piperazin-1-yl)icosa-5,8,11,14,17-pentaen-1-one]

The remaining lines, values behind:

SMILES: CC/C=C\C/C=C\C/C=C\C/C=C\C/C=C\CCCC(=O)NCCNC(=O)c1cccnc1 [Compound I-8, N-(2-(5Z,8Z,11Z,14Z,17Z)-eicosa-5,8,11,14,17-pentaenamidoethyl)nicotinamide]
PCSK9 levels in HepG2 cells incubated with atorvastatin (PCSK9; HepG2 cells incubated with 10 μM of atorvastatin along with the test article, FIG. 2): decrease PCSK9 levels in a dose response manner | IC50 (PCSK9; HepG2 cells): < 25 µM | lowering of PCSK9 (PCSK9; HepG2 cells, at 25 and 50 μM, FIG. 1): significant lowering of PCSK9 | fed plasma triglyceride level [1]: dose dependent decrease | plasma cholesterol at t=2 weeks (ApoE3Leiden mice; 2 weeks of treatment, FIG. 4): statistically significant reduction | plasma cholesterol after 4 weeks of treatment (ApoE3Leiden mice; 4 weeks, FIG. 5): Comparable level of cholesterol reduction | plasma triglyceride levels after 4 weeks of treatment (ApoE3Leiden mice; 4 weeks, FIG. 6): significant reduction | liver weight (ApoE*3 Leiden mice; FIG. 7): statistically significant drop | triglyceride level after 16 weeks of treatment (ApoE*3 Leiden mice; control group 160 mg/dL): 110 mg/dL | cholesterol level after 16 weeks of treatment (ApoE*3 Leiden mice; control group 750 mg/dL): 420 mg/dL

SMILES: CC/C=C\C/C=C\C/C=C\C/C=C\C/C=C\CCCC(=O)N1CCC[C@@H]1CNC(=O)C(C)(C)Oc1ccc(C(=O)c2ccc(Cl)cc2)cc1 [VII-23, 2-(4-(4-chlorobenzoyl)phenoxy)-N—(((R)-1-((5Z,8Z,11Z,14Z,17Z)-icosa-5,8,11,14,17-pentaenoyl)pyrrolidin-2-yl)methyl)-2-methylpropanamide]
IC50 (PCSK9; HepG2 cells): < 25 µM

SMILES: CC/C=C\C/C=C\C/C=C\C/C=C\C/C=C\CCCC(=O)N1CCC[C@H]1CNC(=O)C(C)(C)Oc1ccc(C(=O)c2ccc(Cl)cc2)cc1 [VII-24, 2-(4-(4-chlorobenzoyl)phenoxy)-N—(((S)-1-((5Z,8Z,11Z,14Z,17Z)-icosa-5,8,11,14,17-pentaenoyl)pyrrolidin-2-yl)methyl)-2-methylpropanamide]
IC50 (PCSK9; HepG2 cells): > 50 µM

SMILES: CC(C)c1c(C(=O)Nc2ccccc2)c(-c2ccccc2)c(-c2ccc(F)cc2)n1CC[C@@H](O)C[C@@H](O)CC(=O)O [atorvastatin, reference compound]
PCSK9 secretion (PCSK9; HepG2 cells, 10 μM atorvastatin, FIG. 2): increases PCSK9 secretion
